Measurements as given in patent publication US8492385B2, “Crystalline modifications of N-alpha-(2,4,6-triisopropylphenylsulfonyl)-3-hydroxyamidino- (L)- phenylalanine 4-ethoxycarbonylpiperazide and/or salts thereof” (Wilex AG, priority 2004, dated 2013).

Key:
Type in all cases: physicochemical
[1] = Investigation of the hygroscopicity (storage at 85% relative humidity, TGA); settings: storage for 1 week/85% relative humidity
[2] = Investigation of the crystallinity by X-ray diffractometry; settings: salts suspended 7 days in a suitable solvent, filtered, dried at room temperature
Description: In a second step, the salts were suspended for 7 days in a suitable solvent, filtered and dried at room temperature.
Processes: X-ray diffractometry (XRD); microscopy

[3] = Polymorphism screening / stability of the solid form (stirring in solvents, mechanical stress)
[4] = DSC and TGA thermograms of WX-671.1 (hydrogensulfate salt)
Procedure: In this example, thermograms were plotted by differential scanning calorimetry (DSC) and thermo-gravimetry (TGA). […] It decomposes from about 180° C. (exothermic peak in the DSC thermogram, mass loss in the TGA thermogram in the corresponding temperature range). The decomposition temperatures are strongly heating rate-dependent and were determined in the DSC calorimeter at a heating rate of 2 Kmin^−1. The DSC table measurements shown were recorded at a heating rate of […] is correspondingly recorded at higher temperatures.

[5] = Thermomicroscopy of WX-671.1
Procedure: Thermomicroscopic recordings of a sample of WX-671.1 were made (not shown). Agglomerates were observed which show no specific habit. The active compound decomposes with bubble formation from about 197° C. Differences to the decomposition temperature observed in the DSC calorimeter come about due to the different heating rates. WX-671.1 is obtained in nonspecific form from solvents.

TGA (hygroscopicity) [1] [%]	TGA, kind of water uptake [1]	XRD (crystallinity) [2]	thermodynamic stability of the form [3]	decomposition temperature ([4]; mesophase B)	mass loss (TGA) ([4]; mesophase C, up to 175° C.) [%]	mass loss (TGA) ([4]; modification A, at 150° C.)	decomposition with bubble formation, temperature [5]	change of form on stirring in water:ethanol (1:1) ([3]; mesophase B)	change of form due to mechanical stress ([3]; mesophase B, grinding in a mortar, compressing at 9 kbar)	change of form on stirring in isopropanol ([3]; mesophase B, room temperature, one week)	Molecule
10.5	(adsorptive)	completely amorphous									Tartrate
			thermodynamically stable compound								CCOC(=O)N1CCN(C(=O)[C@H](Cc2cccc(C(N)=NO)c2)NS(=O)(=O)c2c(C(C)C)cc(C(C)C)cc2C(C)C)CC1.O=S(=O)(O)O [WX-671.2, N-α-(2,4,6-triisopropylphenyl-sulfonyl)-3-hydroxyamidino-(L)-phenylalanine 4-ethoxy-carbonylpiperazide sulfate]
0.8	(adsorptive)	liquid crystalline		about 185 °C	4.5	no significant mass loss	about 197 °C	does not change	does not alter	changes into modification A	CCOC(=O)N1CCN(C(=O)[C@H](Cc2cccc(C(N)=NO)c2)NS(=O)(=O)c2c(C(C)C)cc(C(C)C)cc2C(C)C)CC1 [WX-671.1, N-α-(2,4,6-triisopropylphenylsulfonyl)-3-hydroxyamidino-(L)-phenylalanine 4-ethoxycarbonylpiperazide]

Molecule	TGA (hygroscopicity) [1] [%]	TGA, kind of water uptake [1]	XRD (crystallinity) [2]	thermodynamic stability of the form [3]	decomposition temperature ([4]; mesophase B)	mass loss (TGA) ([4]; mesophase C, up to 175° C.) [%]	mass loss (TGA) ([4]; modification A, at 150° C.)	decomposition with bubble formation, temperature [5]	change of form on stirring in water:ethanol (1:1) ([3]; mesophase B)	change of form due to mechanical stress ([3]; mesophase B, grinding in a mortar, compressing at 9 kbar)	change of form on stirring in isopropanol ([3]; mesophase B, room temperature, one week)
Hydrochloride	7.5	(adsorptive)	completely amorphous								
